The test system of series [1] is L6 cells. The experiment in a line: FACS analysis of peptide uptake in L6 cells. The settings on record: FITC-conjugated peptide, increasing concentrations, in the presence of liposomes, harvested 48h later, FACS FL-1, four experiments. The format is cell-based, rat. As to the method: Figure 3 Design and in vitro effects of Prep1(54-72) peptide on Prep1/p160 association (A) Binding curves of Prep1(59-72) and Prep1(54-72) peptides to p160_20-160 by ELISA-like assays. Biotinylated peptides at several concentrations were added in triplicate to a 96-well plate coated with p160_20-160 (0.1μM). Experiments were performed at least twice and the average results fitted using GraphPad Prism. […] (B) Competition binding experiments. His6-tagged-p160_20-160 at 0.25μM was incubated with Prep1(59-72) and Prep1(54-72) at concentrations ranging between 0.001÷10μM and added to a 96-well plate coated with Prep1_45-155 (0.10μM). Results are the average of three independent experiments. (C) L6 cells were incubated with increasing concentrations of the fluorescein-conjugated peptide (FITC-Prep1(54-72)) and peptide uptake was detected by FACS analysis of fluorescein-labeled cells. […] Protein lysates were immunoprecipitated with Prep1 antibodies and analyzed by Western blot using antibodies for p160 or for Prep1. […] The blots were detected by ECL and autoradiography. […]
L6 cells were incubated with negative control (NC) and Prep1(54-72) peptides conjugated with fluorescein isothiocianate (FITC) at different concentrations and harvested 48h later. […] The samples were acquired by a BD LSRFortessa (BD Bioscience, San Jose, CA) and analyzed using BD FACS Diva Software.

The test system of series [2] is L6 cells. The experiment in a line: Cell toxicity in L6 cells. The class given is cell-based, rat. The settings on record: 10μM peptide in the presence of liposomes, data not shown.

“FITC-Prep1(54-72): fluorescein-conjugated Prep1(54-72) peptide”: in series [1], the “peptide uptake into cells” value is “dose-dependent manner”. Further, in series [2], the cell toxicity result is listed as “without inducing any apparent cell toxicity”.

These data come from paper PMC5641094, “A peptide antagonist of Prep1-p160 interaction improves ceramide-induced insulin resistance in skeletal muscle cells” (Oncotarget, 2017).
